From PubChem BioAssay (NCI)
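These data come from cells grown in 96-well plates and exposed to compound for 48 hours at five concentrations. TGI is the concentration that stops growth completely.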

system: DLD-1 colon; assay: NCI tumour cell line growth inhibition, 48 h

SMILES	TGI [µM]
O=c1c2ccccc2nc(-c2ccccc2)n1NC(=S)Nc1cccc(Cl)c1	> 100
CCOC(=O)CC(NC(=O)c1ccc(N=NN(C)C)cc1)C(=O)OCC (stereo unspecified)	> 100
CN(C)CN(C)c1nc(N(C)C)nc(N(C)CN(C)C)n1	> 100
CC(C)[Si](OCC1CC(C#N)OC(C)(C)O1)(C(C)C)C(C)C (stereo unspecified)	> 100
N#C/C(=C\c1ccc2[nH]ccc2c1)C(=O)c1ccc(O)c(O)c1	> 100
CC(=O)Nc1ccc(-c2nnc(SCC(=O)Nc3ccc(Cl)cc3)o2)cc1	27.9
COc1ccc2c([nH]c3c(O)c(-c4c(C)cc5c([nH]c6c(CC=C(C)C)c(OC)ccc65)c4O)c(C)cc32)c1CC=C(C)C	> 100

system: HCT-15 colon; assay: NCI tumour cell line growth inhibition, 48 h

SMILES	TGI [µM]
O=c1c2ccccc2nc(-c2ccccc2)n1NC(=S)Nc1cccc(Cl)c1	> 100
CCOC(=O)CC(NC(=O)c1ccc(N=NN(C)C)cc1)C(=O)OCC (stereo unspecified)	> 100
CN(C)CN(C)c1nc(N(C)C)nc(N(C)CN(C)C)n1	68.2
CC(C)[Si](OCC1CC(C#N)OC(C)(C)O1)(C(C)C)C(C)C (stereo unspecified)	79
N#C/C(=C\c1ccc2[nH]ccc2c1)C(=O)c1ccc(O)c(O)c1	> 100
CC(=O)Nc1ccc(-c2nnc(SCC(=O)Nc3ccc(Cl)cc3)o2)cc1	40
FC(F)(F)c1ccc2nc(Sc3ccc4ccccc4c3)cnc2c1	> 100
O=P(O)(O)CN1CCNCCN(CP(=O)(O)O)CC1	> 100
COc1ccc2c([nH]c3c(O)c(-c4c(C)cc5c([nH]c6c(CC=C(C)C)c(OC)ccc65)c4O)c(C)cc32)c1CC=C(C)C	> 100
COc1ccc(CNc2nc3ccccc3nc2C(=O)O)cc1	60.9
c1cc2c(cc1C1=NCCN1)c1cc(C3=NCCN3)ccc1n2CC1CCCCC1	> 100
C=C1CC2[C@H](C)C(=O)CCC2(C)C2=C1C1CCC(C(C)CCC(=C)C(C)C(=O)O)C1(C)CC2=O (stereo partly specified)	> 100
COc1ccc(-n2cnc3c(NC(Cc4ccccc4)C(=O)O)ncnc32)cc1 (stereo unspecified)	> 100
CC(=O)OCC1OC(n2c(-c3ccccc3)c(N=Nc3ccc(C)cc3)c(C)c(C#N)c2=S)C(OC(C)=O)C(OC(C)=O)C1OC(C)=O (stereo unspecified)	86.6
CC(C)NC(=O)OCc1c(COC(=O)NC(C)C)c(-c2cc[n+](COC(=O)C3CCCCC3)cc2)n2c1CCC2	> 100
O=S(=O)(O)c1cc(S(=O)(=O)O)c2c(N=Nc3ccc(N=Nc4ccccc4)cc3)c(O)ccc2c1	> 100
CC(C)(C)C1=C(Br)C(OC(=O)C(F)(F)F)(C(C)(C)C)OP1(=O)c1ccccc1 (stereo unspecified)	> 100
CC(C)=NOC(=O)Nc1cccc2c1OCO2	> 100
Cc1ccc(/C=C2/N=C(N/N=C\c3ccccc3)NC2=O)cc1	> 100
O=C(Nc1ccc2ccccc2c1)c1cc2cc(CCl)ccc2oc1=O	> 100
CC(C)(C)[Si](C)(C)OC[C@H](/C=C\CCCC(=O)O)NC1(c2ccccc2)c2ccccc2-c2ccccc21	50.9
CN(C)CCNC(=O)c1c(O)ccc2c1c1c(n2CCc2ccccc2)C(=O)c2ccccc2C1=O	15.6
N#Cc1nc(-c2cccc(-c3nc(C#N)c(N)o3)n2)oc1N	> 100
O=C1C(c2c(O)[nH]c3ccc(S(=O)(=O)NCCO)cc23)=Nc2ccccc21	> 100
Cc1csc(-n2c(C)nc3cc(Cl)ccc3c2=O)n1	> 100

system: DMS 114 small cell lung; assay: NCI tumour cell line growth inhibition, 48 h

SMILES	TGI [µM]
O=c1c2ccccc2nc(-c2ccccc2)n1NC(=S)Nc1cccc(Cl)c1	> 100
N#C/C(=C\c1ccc2[nH]ccc2c1)C(=O)c1ccc(O)c(O)c1	> 100
CC(=O)Nc1ccc(-c2nnc(SCC(=O)Nc3ccc(Cl)cc3)o2)cc1	4.29
COc1ccc2c([nH]c3c(O)c(-c4c(C)cc5c([nH]c6c(CC=C(C)C)c(OC)ccc65)c4O)c(C)cc32)c1CC=C(C)C	> 100

system: DMS 273 small cell lung; assay: NCI tumour cell line growth inhibition, 48 h

SMILES	TGI [µM]
O=c1c2ccccc2nc(-c2ccccc2)n1NC(=S)Nc1cccc(Cl)c1	> 100
CCOC(=O)CC(NC(=O)c1ccc(N=NN(C)C)cc1)C(=O)OCC (stereo unspecified)	> 100
CN(C)CN(C)c1nc(N(C)C)nc(N(C)CN(C)C)n1	33.3
CC(C)[Si](OCC1CC(C#N)OC(C)(C)O1)(C(C)C)C(C)C (stereo unspecified)	35.8
N#C/C(=C\c1ccc2[nH]ccc2c1)C(=O)c1ccc(O)c(O)c1	> 100
CC(=O)Nc1ccc(-c2nnc(SCC(=O)Nc3ccc(Cl)cc3)o2)cc1	40.3
COc1ccc2c([nH]c3c(O)c(-c4c(C)cc5c([nH]c6c(CC=C(C)C)c(OC)ccc65)c4O)c(C)cc32)c1CC=C(C)C	> 100

system: NCI-H460 lung; assay: NCI tumour cell line growth inhibition, 48 h

SMILES	TGI [µM]
O=c1c2ccccc2nc(-c2ccccc2)n1NC(=S)Nc1cccc(Cl)c1	> 100
CCOC(=O)CC(NC(=O)c1ccc(N=NN(C)C)cc1)C(=O)OCC (stereo unspecified)	> 100
CN(C)CN(C)c1nc(N(C)C)nc(N(C)CN(C)C)n1	> 100
CC(C)[Si](OCC1CC(C#N)OC(C)(C)O1)(C(C)C)C(C)C (stereo unspecified)	30.8
N#C/C(=C\c1ccc2[nH]ccc2c1)C(=O)c1ccc(O)c(O)c1	> 100
CC(=O)Nc1ccc(-c2nnc(SCC(=O)Nc3ccc(Cl)cc3)o2)cc1	36.8
FC(F)(F)c1ccc2nc(Sc3ccc4ccccc4c3)cnc2c1	> 100
O=P(O)(O)CN1CCNCCN(CP(=O)(O)O)CC1	> 100
COc1ccc2c([nH]c3c(O)c(-c4c(C)cc5c([nH]c6c(CC=C(C)C)c(OC)ccc65)c4O)c(C)cc32)c1CC=C(C)C	> 100
COc1ccc(CNc2nc3ccccc3nc2C(=O)O)cc1	> 100
c1cc2c(cc1C1=NCCN1)c1cc(C3=NCCN3)ccc1n2CC1CCCCC1	34.5
C=C1CC2[C@H](C)C(=O)CCC2(C)C2=C1C1CCC(C(C)CCC(=C)C(C)C(=O)O)C1(C)CC2=O (stereo partly specified)	> 100
COc1ccc(-n2cnc3c(NC(Cc4ccccc4)C(=O)O)ncnc32)cc1 (stereo unspecified)	> 100
CC(=O)OCC1OC(n2c(-c3ccccc3)c(N=Nc3ccc(C)cc3)c(C)c(C#N)c2=S)C(OC(C)=O)C(OC(C)=O)C1OC(C)=O (stereo unspecified)	> 100
CC(C)NC(=O)OCc1c(COC(=O)NC(C)C)c(-c2cc[n+](COC(=O)C3CCCCC3)cc2)n2c1CCC2	> 100
O=S(=O)(O)c1cc(S(=O)(=O)O)c2c(N=Nc3ccc(N=Nc4ccccc4)cc3)c(O)ccc2c1	> 100
CC(C)(C)C1=C(Br)C(OC(=O)C(F)(F)F)(C(C)(C)C)OP1(=O)c1ccccc1 (stereo unspecified)	> 100
CC(C)=NOC(=O)Nc1cccc2c1OCO2	> 100
Cc1ccc(/C=C2/N=C(N/N=C\c3ccccc3)NC2=O)cc1	> 100
O=C(Nc1ccc2ccccc2c1)c1cc2cc(CCl)ccc2oc1=O	> 100
CC(C)(C)[Si](C)(C)OC[C@H](/C=C\CCCC(=O)O)NC1(c2ccccc2)c2ccccc2-c2ccccc21	59.8
CN(C)CCNC(=O)c1c(O)ccc2c1c1c(n2CCc2ccccc2)C(=O)c2ccccc2C1=O	11.4
N#Cc1nc(-c2cccc(-c3nc(C#N)c(N)o3)n2)oc1N	> 100
O=C1C(c2c(O)[nH]c3ccc(S(=O)(=O)NCCO)cc23)=Nc2ccccc21	> 100
Cc1csc(-n2c(C)nc3cc(Cl)ccc3c2=O)n1	> 100

system: LXFL 529 NSCLC; assay: NCI tumour cell line growth inhibition, 48 h

SMILES	TGI [µM]
O=c1c2ccccc2nc(-c2ccccc2)n1NC(=S)Nc1cccc(Cl)c1	> 100
CCOC(=O)CC(NC(=O)c1ccc(N=NN(C)C)cc1)C(=O)OCC (stereo unspecified)	> 100
CN(C)CN(C)c1nc(N(C)C)nc(N(C)CN(C)C)n1	> 100
N#C/C(=C\c1ccc2[nH]ccc2c1)C(=O)c1ccc(O)c(O)c1	> 100
CC(=O)Nc1ccc(-c2nnc(SCC(=O)Nc3ccc(Cl)cc3)o2)cc1	22.5
COc1ccc2c([nH]c3c(O)c(-c4c(C)cc5c([nH]c6c(CC=C(C)C)c(OC)ccc65)c4O)c(C)cc32)c1CC=C(C)C	> 100

system: TK-10 renal; assay: NCI tumour cell line growth inhibition, 48 h

SMILES	TGI [µM]
O=c1c2ccccc2nc(-c2ccccc2)n1NC(=S)Nc1cccc(Cl)c1	> 100
CCOC(=O)CC(NC(=O)c1ccc(N=NN(C)C)cc1)C(=O)OCC (stereo unspecified)	> 100
CN(C)CN(C)c1nc(N(C)C)nc(N(C)CN(C)C)n1	> 100
CC(C)[Si](OCC1CC(C#N)OC(C)(C)O1)(C(C)C)C(C)C (stereo unspecified)	> 100
N#C/C(=C\c1ccc2[nH]ccc2c1)C(=O)c1ccc(O)c(O)c1	> 100
CC(=O)Nc1ccc(-c2nnc(SCC(=O)Nc3ccc(Cl)cc3)o2)cc1	32.4
FC(F)(F)c1ccc2nc(Sc3ccc4ccccc4c3)cnc2c1	> 100
O=P(O)(O)CN1CCNCCN(CP(=O)(O)O)CC1	> 100
COc1ccc2c([nH]c3c(O)c(-c4c(C)cc5c([nH]c6c(CC=C(C)C)c(OC)ccc65)c4O)c(C)cc32)c1CC=C(C)C	> 100
COc1ccc(CNc2nc3ccccc3nc2C(=O)O)cc1	> 100
c1cc2c(cc1C1=NCCN1)c1cc(C3=NCCN3)ccc1n2CC1CCCCC1	> 100
C=C1CC2[C@H](C)C(=O)CCC2(C)C2=C1C1CCC(C(C)CCC(=C)C(C)C(=O)O)C1(C)CC2=O (stereo partly specified)	> 100
COc1ccc(-n2cnc3c(NC(Cc4ccccc4)C(=O)O)ncnc32)cc1 (stereo unspecified)	> 100
CC(=O)OCC1OC(n2c(-c3ccccc3)c(N=Nc3ccc(C)cc3)c(C)c(C#N)c2=S)C(OC(C)=O)C(OC(C)=O)C1OC(C)=O (stereo unspecified)	47.6
CC(C)NC(=O)OCc1c(COC(=O)NC(C)C)c(-c2cc[n+](COC(=O)C3CCCCC3)cc2)n2c1CCC2	> 100
O=S(=O)(O)c1cc(S(=O)(=O)O)c2c(N=Nc3ccc(N=Nc4ccccc4)cc3)c(O)ccc2c1	> 100
CC(C)(C)C1=C(Br)C(OC(=O)C(F)(F)F)(C(C)(C)C)OP1(=O)c1ccccc1 (stereo unspecified)	> 100
CC(C)=NOC(=O)Nc1cccc2c1OCO2	> 100
Cc1ccc(/C=C2/N=C(N/N=C\c3ccccc3)NC2=O)cc1	> 100
O=C(Nc1ccc2ccccc2c1)c1cc2cc(CCl)ccc2oc1=O	> 100
CC(C)(C)[Si](C)(C)OC[C@H](/C=C\CCCC(=O)O)NC1(c2ccccc2)c2ccccc2-c2ccccc21	> 100
CN(C)CCNC(=O)c1c(O)ccc2c1c1c(n2CCc2ccccc2)C(=O)c2ccccc2C1=O	18.4
